Experimental data from PubChem BioAssay (NCI).
“And” between values parts separate entries of the source, which are not always exact repeats. Equal values may be shown once.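 Results reflect a 48-hour exposure of cells in 96-well plates to compound at five concentrations. The concentration for 50% growth inhibition is given as GI50. TGI: total growth inhibition.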

Assays:
Test in all cases: growth of human tumour cells (NCI), 48 h
A498 renal = test system: A498 renal
HOP-62 NSCLC = test system: HOP-62 NSCLC
HS 578T breast = test system: HS 578T breast
KM12 colon = test system: KM12 colon
MCF7 breast = test system: MCF7 breast
NCI/ADR-RES ovarian = test system: NCI/ADR-RES ovarian
OVCAR-3 ovarian = test system: OVCAR-3 ovarian
OVCAR-5 ovarian = test system: OVCAR-5 ovarian
SF-295 CNS = test system: SF-295 CNS
T-47D breast = test system: T-47D breast

| SMILES | GI50 (A498 renal) [µM] | TGI (A498 renal) [µM] | GI50 (HOP-62 NSCLC) | TGI (HOP-62 NSCLC) | GI50 (HS 578T breast) | TGI (HS 578T breast) [µM] | GI50 (KM12 colon) | TGI (KM12 colon) | GI50 (MCF7 breast) | TGI (MCF7 breast) [µM] | GI50 (NCI/ADR-RES ovarian) | TGI (NCI/ADR-RES ovarian) | GI50 (OVCAR-3 ovarian) | TGI (OVCAR-3 ovarian) | GI50 (OVCAR-5 ovarian) | TGI (OVCAR-5 ovarian) | GI50 (SF-295 CNS) | TGI (SF-295 CNS) | GI50 (T-47D breast) | TGI (T-47D breast) [µM] |
| --- | --- | --- | --- | --- | --- | --- | --- | --- | --- | --- | --- | --- | --- | --- | --- | --- | --- | --- | --- | --- |
| CCCCc1nc2cc(/C=C/C(=O)NO)ccc2n1CCN(CC)CC | 0.194 | 0.658 | 322 nM | 11.6 µM | 515 nM | 33 | 356 nM | 5.73 µM | 202 nM | > 20.3 | 0.239 µM | 4.03 µM | 363 nM | 1.83 µM | 130 nM | 1.4 µM | 260 nM | 1.23 µM | 136 nM | > 47.4 |
| Oc1ccc(SCc2ccc(NCc3ccccc3)cc2)cc1 | – | 88 | – | > 100 µM | – | > 100 | – | > 100 µM | – | > 100 | – | > 100 µM | – | > 100 µM | – | 69.3 µM | – | > 100 µM | – | 56.6 |
| OC(C(=Nc1ccccc1)c1ccccc1)c1ccccc1 (stereo not given) | – | 33.6 | – | 39.8 µM | – | 7.11 | – | 10.4 µM | – | 45.4 | – | 65.7 µM | – | 14.3 µM | – | 82.3 µM | – | 26.3 µM | – | > 100 |
| C=C(C(=O)OC)[C@@H]1C[C@@H](O)[C@]2(C)CC/C=C(\C)CCC[C@H](C)[C@H](O)C1O2 | 65.9 | > 100 | > 100000 nM | > 100 µM | 32800 nM | > 100 | 41000 nM | > 100 µM | 31700 nM | > 100 | 83.7 µM | > 100 µM | 31300 nM | 92.7 µM | > 100000 nM | > 100 µM | 83800 nM | > 100 µM | 52800 nM | > 100 |
| COc1ccc(Cn2cc(Cn3c(=O)c(-c4nc5ccccc5[nH]4)cc4ccccc43)nn2)c(OC)c1OC | 0.118 | 0.607 | 179 nM and 525 nM | 0.938 µM and 3.87 µM | 77.8 nM and 168 nM | – | 226 nM and 186 nM | 1.39 µM and 1.48 µM | 78.9 nM and 49.5 nM | – | 1.1 µM and 1.83 µM | 3.96 µM and 15.8 µM | 165 nM and 292 nM | 0.633 µM and 1.19 µM | 201 nM and 329 nM | 1.23 µM and 1.53 µM | 239 nM and 324 nM | 1.19 µM and 1.94 µM | 154 nM and 804 nM | – |
| CN1c2ccccc2C(C)(C)C12CC(c1ccc(Cl)c(S(=O)(=O)N3CCCC3)c1)=NO2 (stereo not given) | > 100 | > 100 | 83700 nM | > 100 µM | > 100000 nM | > 100 | – | – | > 100000 nM | > 100 | > 100 µM | > 100 µM | > 100000 nM | > 100 µM | > 100000 nM | > 100 µM | > 100000 nM | > 100 µM | > 100000 nM | > 100 |
| CN1CCN(c2cc(Nc3cc(C4CC4)[nH]n3)nc(Nc3ccc(CC(=O)NCc4cccc(F)c4)cc3)n2)CC1 | 0.143 | 0.967 | 754 nM | 14.4 µM | 280 nM | 2.34 | 67.1 nM | 12.1 µM | 108 nM | 2.05 | 18.8 µM | > 100 µM | 1590 nM | 16.5 µM | 432 nM | 15.8 µM | 1990 nM | 10.3 µM | 2270 nM | 13.8 |
| CC(=O)OC1=C2C(CC3C4CC=C5CC(OC(C)=O)CCC5(C)C4CCC23C)C2C(=O)N(Cc3ccccc3)C(=O)C2C1 (stereo not given) | 10.9 | 43.6 | 35900 nM | > 100 µM | 15700 nM | > 100 | 5980 nM | 46.8 µM | 2710 nM | 15 | 5.53 µM | 28.2 µM | 3310 nM | 12 µM | 50300 nM | > 100 µM | 10800 nM | > 100 µM | 3120 nM | 20.1 |
| O=[N+]([O-])c1ccc2c(c1)S(=O)c1ccccc1-2 (stereo not given) | – | > 100 | – | > 100 µM | – | > 100 | – | > 100 µM | – | > 100 | – | > 100 µM | – | > 100 µM | – | > 100 µM | – | > 100 µM | – | > 100 |
| Oc1ccc(-c2nc3ccc4[nH]ncc4c3c3c2CCCC3)c2cccnc12 | 0.779 | 2.19 | 160 nM | 1.71 µM | 163 nM | 2.67 | 311 nM | 7.93 µM | 179 nM | 2.89 | 0.167 µM | 4.61 µM | 491 nM | 7.3 µM | 1160 nM | 14.7 µM | 339 nM | 2.68 µM | 697 nM | 4.67 |
| Clc1ccc(-c2cn(-c3ccccc3)c(-c3ccccc3)n2)c(Cl)c1 | 12.6 | > 45.1 | 1360 nM | 5.02 µM | 1270 nM | 6.02 | 932 nM | 2.02 µM | 1560 nM | > 12.3 | 3.51 µM | > 44.9 µM | 861 nM | 1.73 µM | > 16000 nM | > 45.1 µM | 1450 nM | 4.68 µM | 2520 nM | > 50 |
| COc1cc2c3c(n(C)c(=O)c2cc1OC)-c1cc2c(cc1/C3=C\[C@@H](N)CCCCN)OCO2 | 5.14 | 33.9 | 3140 nM | 26.9 µM | 15900 nM | 81.8 | 1580 nM | > 100 µM | 657 nM | > 49.3 | 29.7 µM | > 100 µM | 3830 nM | 58.9 µM | 5140 nM | > 100 µM | 4300 nM | > 100 µM | 13000 nM | > 100 |
| COC(=O)c1cc2c(cc1Cl)SC(N(N(C)C)S(=O)(=O)c1ccc(Cl)cc1)=NS2(=O)=O | 15.1 | 30.1 | 19600 nM | 48.7 µM | 18800 nM | 48.6 | 13800 nM | 27 µM | 17000 nM | 34.8 | 15.2 µM | 39.9 µM | 13000 nM | 37.8 µM | 20100 nM | 46.7 µM | 18000 nM | 51.2 µM | 8420 nM | 26.7 |
